Consider three molecules from PMC6100415, “Hepatic Metabolism of Sakuranetin and Its Modulating Effects on Cytochrome P450s and UDP-Glucuronosyltransferases” (Molecules : A Journal of Synthetic Chemistry and Natural …, 2018).

As a reminder, the inhibition is the relative decrease from the control value, in per cent.

Where two headings read alike, the source gives them in different places.

Format in all cases: in vitro ADME
One data set has as its target T1, CYP2B6 (Homo sapiens, UniProt P20813).
T1 sequence (P20813 1-491): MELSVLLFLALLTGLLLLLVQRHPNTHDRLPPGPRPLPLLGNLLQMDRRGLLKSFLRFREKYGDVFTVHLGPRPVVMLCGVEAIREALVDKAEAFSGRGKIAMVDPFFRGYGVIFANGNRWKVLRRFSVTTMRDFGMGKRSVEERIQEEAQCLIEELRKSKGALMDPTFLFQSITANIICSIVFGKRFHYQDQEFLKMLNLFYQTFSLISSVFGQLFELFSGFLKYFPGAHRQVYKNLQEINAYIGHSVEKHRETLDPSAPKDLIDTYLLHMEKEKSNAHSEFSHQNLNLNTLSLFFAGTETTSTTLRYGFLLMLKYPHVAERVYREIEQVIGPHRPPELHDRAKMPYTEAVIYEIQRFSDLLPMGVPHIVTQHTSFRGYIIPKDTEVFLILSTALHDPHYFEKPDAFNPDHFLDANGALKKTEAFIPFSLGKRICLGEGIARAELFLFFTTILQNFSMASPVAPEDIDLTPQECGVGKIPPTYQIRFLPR
Description: CYP inhibition in human liver microsomes, bupropion hydroxylation (BPHY). The settings on record: pH 7.4, probe bupropion (hydroxylation, BPHY). An excerpt: The DAD was set at 280 nm.
For orientation: Microsomes from liver hold many membrane-bound enzymes, among them those of drug oxidation.

The target of another data set is T2, UGT1A6 (Homo sapiens, UniProt P19224).
T2 construct: The typical incubation mixture contained human liver microsomes (0.5 mg/mL) along with SKN (10 μM); tissue BD Gentest; host or cells: human liver microsomes
T2 sequence (P19224 27-532): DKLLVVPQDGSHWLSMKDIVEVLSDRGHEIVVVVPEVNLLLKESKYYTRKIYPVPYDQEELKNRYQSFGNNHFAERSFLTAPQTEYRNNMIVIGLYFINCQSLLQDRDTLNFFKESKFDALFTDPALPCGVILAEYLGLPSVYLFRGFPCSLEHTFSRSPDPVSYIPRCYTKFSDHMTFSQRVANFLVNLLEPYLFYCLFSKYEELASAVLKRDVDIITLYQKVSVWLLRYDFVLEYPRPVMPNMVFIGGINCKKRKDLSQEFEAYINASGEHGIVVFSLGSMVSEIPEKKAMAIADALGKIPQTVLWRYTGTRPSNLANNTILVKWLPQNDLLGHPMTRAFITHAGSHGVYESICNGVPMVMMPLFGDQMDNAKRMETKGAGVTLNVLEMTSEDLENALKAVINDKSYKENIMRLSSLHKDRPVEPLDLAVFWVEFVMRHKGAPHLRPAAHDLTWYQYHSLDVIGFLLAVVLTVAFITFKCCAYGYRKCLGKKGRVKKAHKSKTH
Description: UGT inhibition in human liver microsomes, 1-naphthol β-D-glucuronidation (NPG). The settings on record: pH 7.4, probe 1-naphthol (200 μM). As to the method:
(§1) The formation of a glucuronide conjugate from an isozyme-specific substrate (200 μM, Table 5) was examined to determine UGT activity levels in human liver microsomes. The typical incubation mixture contained human liver microsomes (0.5 mg/mL) along with SKN (10 μM), and MgCl2 (10 mM) in 50 mM Tris-HCl buffer (pH 7.4). The metabolic reaction was initiated by adding UPDGA (2 mM) and stopped by adding an equal volume of ice-cold methanol. […] The conditions used for the operation and analysis of the HPLC-DAD and LC-ESI-MS are provided in the Supplementary Materials and Table S3.
(§2) The solvent flow rate was set at 0.2 mL/min, and the column temperature was set at 35 °C. The LTQ instrument was operated in negative ion electron spray mode at an ion spray voltage of −4.2 kV and a source temperature of 275 °C. The sheath gas flow rate was 35 arb, and the aux gas flow rate was 5 arb. The MS conditions used to detect glucuronides via selected ion monitoring scan mode are summarized in Supplementary Materials Table S3.

The target in the next data set is T3, UGT2B7 (Homo sapiens, UniProt P16662).
T3 construct: The typical incubation mixture contained human liver microsomes (0.5 mg/mL) along with SKN (10 μM); tissue BD Gentest; host or cells: human liver microsomes
T3 sequence (P16662 24-529): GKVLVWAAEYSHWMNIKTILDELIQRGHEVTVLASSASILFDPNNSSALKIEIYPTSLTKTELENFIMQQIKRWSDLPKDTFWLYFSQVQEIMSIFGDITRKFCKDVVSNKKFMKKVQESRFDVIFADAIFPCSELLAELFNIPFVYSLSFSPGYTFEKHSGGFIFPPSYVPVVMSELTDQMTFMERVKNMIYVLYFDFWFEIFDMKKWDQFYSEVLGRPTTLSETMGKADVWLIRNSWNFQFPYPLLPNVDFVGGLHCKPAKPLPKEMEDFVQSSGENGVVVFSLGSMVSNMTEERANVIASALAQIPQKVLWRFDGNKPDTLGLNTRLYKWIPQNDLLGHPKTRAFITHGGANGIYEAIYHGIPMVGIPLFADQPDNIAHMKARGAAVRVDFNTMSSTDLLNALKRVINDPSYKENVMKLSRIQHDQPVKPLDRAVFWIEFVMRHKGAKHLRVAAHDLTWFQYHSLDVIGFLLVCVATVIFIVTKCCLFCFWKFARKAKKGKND
Description: UGT inhibition in human liver microsomes, zidovudine 5′-glucuronidation (AZTG). The settings on record: pH 7.4, probe zidovudine (200 μM). On the procedure:
as §1, §2

A further data set deals with T4, UGT1A9 (Homo sapiens, UniProt O60656).
T4 construct: The typical incubation mixture contained human liver microsomes (0.5 mg/mL) along with SKN (10 μM); tissue BD Gentest; host or cells: human liver microsomes
T4 sequence (O60656 26-530): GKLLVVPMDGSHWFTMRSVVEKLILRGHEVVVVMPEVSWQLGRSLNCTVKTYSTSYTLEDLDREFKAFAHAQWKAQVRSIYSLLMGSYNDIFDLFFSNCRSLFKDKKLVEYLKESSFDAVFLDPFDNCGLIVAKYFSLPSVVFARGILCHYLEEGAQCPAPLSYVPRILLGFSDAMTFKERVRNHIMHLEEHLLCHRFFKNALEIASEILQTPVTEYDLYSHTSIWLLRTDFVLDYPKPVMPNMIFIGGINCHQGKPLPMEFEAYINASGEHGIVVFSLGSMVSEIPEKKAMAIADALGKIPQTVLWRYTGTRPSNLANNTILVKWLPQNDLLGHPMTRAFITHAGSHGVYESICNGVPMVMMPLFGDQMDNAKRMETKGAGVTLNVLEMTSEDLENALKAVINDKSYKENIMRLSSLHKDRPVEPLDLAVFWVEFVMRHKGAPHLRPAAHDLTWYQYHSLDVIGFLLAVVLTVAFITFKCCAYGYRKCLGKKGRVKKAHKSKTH
Description: UGT inhibition in human liver microsomes, mycophenolic acid O-glucuronidation (MPAG). The settings on record: for inhibition at 10 μM: human, pH 7.4, probe mycophenolic acid (200 μM), O-glucuronidation (MPAG), UGT1A9, MPAG. As to the method:
as §1, §2

Setting [1] is: SKN 10 μM, 15 min pre-incubation, read-out: % Inhibition in Pre-Incubation.
Where [2] appears, read: SKN 10 μM, read-out: % Inhibition in Co-Incubation.
Setting [3] is: human liver microsomes, 200 µM, inhibitor 10 M [sic], human liver microsomes 0.5 mg/mL, read-out: Inhibition (%).
The mark [4] stands for this setting: inhibitor 10 µM, human liver microsomes 0.5 mg/mL, read-out: Inhibition (%).
The mark [5] stands for this setting: human liver microsomes, inhibitor 10 µM, human liver microsomes 0.5 mg/mL, read-out: Inhibition (%).

For `COc1cc(O)c2c(c1)OC(c1ccc(O)cc1)CC2=O` (racemic) [SKN, (+/−) 7-O-methylnaringenin], the inhibition at 60 min, 10 µM is 0.8 ± 0.2% at CYP2B6 (liver microsomes, 200 μM, SKN 10 μM, 15 min pre-incubation, read-out: % Inhibition in Pre-Incubation) and -0.6 ± 0.9% on CYP2B6 (liver microsomes, 200 μM, SKN 10 μM, human liver microsomes, read-out: % Inhibition in Co-Incubation). The inhibition at 10 μM at UGT1A6 (setting [1]) is 10.1 ± 1.2%; on UGT1A6 (setting [2]) it was 2 ± 0.6%; at UGT2B7 (setting [1]), 12.6 ± 2.8%; on UGT2B7 (setting [2]), 15.6 ± 0.6%; on UGT1A9 (human liver microsomes, SKN 10 μM, 15 min pre-incubation, read-out: % Inhibition in Pre-Incubation) it was 3.5 ± 2.6%; at UGT1A9 (human liver microsomes, SKN 10 μM, human liver microsomes, read-out: % Inhibition in Co-Incubation), -0.6 ± 3.1%. Further, the “fold higher inhibition of UGT1A9 in the pre-incubation sample than in the co-incubation sample” value at UGT1A9 (SKN, human liver microsomes) came to 1.5 fold. Moreover, the “mode of UGT1A9 inhibition” value on UGT1A9 (pre-incubation 15 min, 10-fold dilution) is “irreversible UGT1A9 inhibitor”.
For the molecule `O=C1C[C@@H](c2ccc(O)c(O)c2)Oc2cc(O)cc(O)c21` [Eriodictyol, 3′-hydroxynaringenin], the inhibition at 60 min, 10 µM at CYP2B6 (setting [3]) came to 16.1 ± 0.9%. In addition, the figures for the inhibition at 10 μM at UGT1A6 (setting [4]), at UGT2B7 (setting [4]) and at UGT1A9 (setting [5]) were 1.9 ± 2.7%, 8.2 ± 1.4% and 2.9 ± 0.8%, respectively.
On to `O=C1C[C@@H](c2ccc(O)cc2)Oc2cc(O)cc(O)c21` [Naringenin], for which, at CYP2B6 (setting [3]), the inhibition at 60 min, 10 µM came out at 24 ± 2.2%. Besides, the inhibition at 10 μM on UGT1A6 (setting [4]) stood at 4.1 ± 3.1%; at UGT2B7 (setting [4]), 6 ± 2.2%; on UGT1A9 (setting [5]) it was 2 ± 2.1%.
